A short description of the data set: stability of halide-free glucosamine at ambient temperature and/or the atmosphere. Type of data set: physicochemical.

For the molecule `N[C@H]1C(O)O[C@H](CO)[C@@H](O)[C@@H]1O` (some centres unmarked) [halide-free glucosamine, glucosamine], the hygroscopicity entry is “quite hygroscopic”. Under “subjected to ambient temperature and/or to the atmosphere”, the stability on storage entry is on record as “will decompose over a period of time”.

The values above are taken from patent publication US7662802B2, “Halide-free glucosamine-acidic drug complexes” (Gluconova, LLC, priority 2004, dated 2010).
